Several values for one entry are separate records, joined by “and”; a condition that tells them apart may be missing. Identical values can stand only once. Like-named read-outs stand apart in the source and are kept apart here.
Assay: Distribution of C1 in tissues
Assay type: in vivo, Wistar rats
Details: p.o. 75 mg/kg, 75 mg/kg; for concentration at 10 min / concentration at 30 min / concentration at 90 min / concentration at 3 h / concentration at 6 h: male, Wistar, rat, po
Procedure: Fifteen male Wistar rats were distributed in five groups (n = 3) and rats were orally administered C1 at a single dose of 75 mg/kg. Subsequently, a group of animals was sacrificed (n = 3) at 10, 30, 90, 180, and 360 min. […] All tissues and organs were weighed on an analytical balance and immediately processed. Each tissue sample was homogenized with saline solution in a 1:3 (wt/v) ratio. The preparation process for analysis was the same as described above for plasma samples [57] (File S8).

[1] = Small intestine, individual rats

O=C(/C=C(/Br)C(=O)O)Nc1ccc(O)c(C(=O)O)c1 [Compound C1, 5-{[(2E)-3-bromo-3-carboxyprop-2-enoyl]amino}-2-hydroxybenzoic acid]
Concentration (µg/mL) at 30 minutes, Rat 1-3 (Brain, individual rats): 4.1 µg/mL and 3.2 µg/mL | Concentration (µg/mL) at 90 minutes, Rat 1-3 (Brain, individual rats): 3.3 µg/mL and 3.8 µg/mL | Concentration (µg/mL) at 3 h, Rat 1-3 (Brain, individual rats): 1.9 µg/mL and 3.2 µg/mL | Concentration (µg/mL) at 6 h, Rat 1-3 (Brain, individual rats): 3.0 µg/mL | Concentration (µg/mL) at 10 minutes, Rat 1-3 (Colon, individual rats): 7.5 µg/mL and 9.4 µg/mL | Concentration (µg/mL) at 30 minutes, Rat 1-3 (Colon, individual rats): 10.6 µg/mL and 8.5 µg/mL and 3.9 µg/mL | Concentration (µg/mL) at 90 minutes, Rat 1-3 (Colon, individual rats): 7.9 µg/mL and 6.8 µg/mL | Concentration (µg/mL) at 3 h, Rat 1-3 (Colon, individual rats): 3.6 µg/mL and 6.1 µg/mL and 7.5 µg/mL | Concentration (µg/mL) at 10 minutes, Rat 1-3 (Hearth, individual rats): 8.0 µg/mL and 1.3 µg/mL and 12.4 µg/mL | Concentration (µg/mL) at 30 minutes, Rat 1-3 (Hearth, individual rats): 4.4 µg/mL and 2.6 µg/mL | Concentration (µg/mL) at 90 minutes, Rat 1-3 (Hearth, individual rats): 3.9 µg/mL and 3.0 µg/mL | Concentration (µg/mL) at 3 h, Rat 1-3 (Hearth, individual rats): 2.2 µg/mL and 4.0 µg/mL | Concentration (µg/mL) at 10 minutes, Rat 1-3 (Kidney, individual rats): 14.1 µg/mL and 11.2 µg/mL and 22.6 µg/mL | Concentration (µg/mL) at 30 minutes, Rat 1-3 (Kidney, individual rats): 9.1 µg/mL and 5.4 µg/mL | Concentration (µg/mL) at 90 minutes, Rat 1-3 (Kidney, individual rats): 6.1 µg/mL and 4.7 µg/mL | Concentration (µg/mL) at 3 h, Rat 1-3 (Kidney, individual rats): 4.2 µg/mL and 3.3 µg/mL and 6.8 µg/mL | Concentration (µg/mL) at 10 minutes, Rat 1-3 (Liver, individual rats): 5.1 µg/mL and 4.4 µg/mL | Concentration (µg/mL) at 30 minutes, Rat 1-3 (Liver, individual rats): 7.2 µg/mL and 6.4 µg/mL | Concentration (µg/mL) at 90 minutes, Rat 1-3 (Liver, individual rats): 2.6 µg/mL and 5.6 µg/mL and 5.1 µg/mL | Concentration (µg/mL) at 3 h, Rat 1-3 (Liver, individual rats): 5.0 µg/mL and 2.6 µg/mL and 7.0 µg/mL | Concentration (µg/mL) at 10 minutes, Rat 1-3 (Lung, individual rats): 23.3 µg/mL and 6.2 µg/mL and 17.7 µg/mL | Concentration (µg/mL) at 30 minutes, Rat 1-3 (Lung, individual rats): 14.6 µg/mL and 6.7 µg/mL and 10.9 µg/mL | Concentration (µg/mL) at 90 minutes, Rat 1-3 (Lung, individual rats): 4.0 µg/mL and 13.3 µg/mL and 4.8 µg/mL | Concentration (µg/mL) at 3 h, Rat 1-3 (Lung, individual rats): 3.9 µg/mL and 7.9 µg/mL and 10.0 µg/mL | Concentration (µg/mL) at 30 minutes, Rat 1-3 (Muscle, individual rats): 4.0 µg/mL | Concentration (µg/mL) at 90 minutes, Rat 1-3 (Muscle, individual rats): 3.3 µg/mL and 3.6 µg/mL | Concentration (µg/mL) at 3 h, Rat 1-3 (Muscle, individual rats): 2.4 µg/mL and 2.6 µg/mL | Concentration (µg/mL) at 30 minutes, Rat 1-3 [1]: 18.3 µg/mL and 23.9 µg/mL and 4.9 µg/mL | Concentration (µg/mL) at 90 minutes, Rat 1-3 [1]: 14.1 µg/mL and 18.2 µg/mL | Concentration (µg/mL) at 3 h, Rat 1-3 [1]: 15.4 µg/mL and 14.9 µg/mL | Concentration (µg/mL) at 10 minutes, Rat 1-3 (Spleen, individual rats): 22.6 µg/mL and 42.7 µg/mL | Concentration (µg/mL) at 30 minutes, Rat 1-3 (Spleen, individual rats): 15.6 µg/mL and 15.0 µg/mL | Concentration (µg/mL) at 90 minutes, Rat 1-3 (Spleen, individual rats): 5.5 µg/mL and 17.1 µg/mL and 12.4 µg/mL | Concentration (µg/mL) at 3 h, Rat 1-3 (Spleen, individual rats): 10.4 µg/mL and 4.7 µg/mL and 11.1 µg/mL | Concentration (µg/mL) at 10 minutes, Rat 1-3 (Stomach, individual rats): 24.1 µg/mL and 10.3 µg/mL and 20.5 µg/mL | Concentration (µg/mL) at 30 minutes, Rat 1-3 (Stomach, individual rats): 13.0 µg/mL and 11.8 µg/mL and 5.8 µg/mL | Concentration (µg/mL) at 90 minutes, Rat 1-3 (Stomach, individual rats): 10.4 µg/mL and 8.4 µg/mL and 4.8 µg/mL | Concentration (µg/mL) at 3 h, Rat 1-3 (Stomach, individual rats): 3.7 µg/mL and 8.5 µg/mL and 7.1 µg/mL | Concentration (µg/mL) at 30 minutes, Rat 1-3 (Testis, individual rats): 4.8 µg/mL and 2.4 µg/mL | Concentration (µg/mL) at 90 minutes, Rat 1-3 (Testis, individual rats): 2.7 µg/mL and 5.8 µg/mL and 3.5 µg/mL | Concentration (µg/mL) at 3 h, Rat 1-3 (Testis, individual rats): 2.8 µg/mL and 3.2 µg/mL | concentration at 10 min (brain, Brain, 10 min, n = 3, read-out: Average Concentration): 3.7 µg/mL | concentration at 30 min (brain, Brain, 30 min, n = 3, read-out: Average Concentration): 3.5 µg/mL | concentration at 90 min (brain, Brain, 90 min, n = 3, read-out: Average Concentration): 3.4 µg/mL | concentration at 3 h (brain, Brain, 3 h, n = 3, read-out: Average Concentration): 2.8 µg/mL | concentration at 6 h (brain, Brain, 6 h, n = 3, read-out: Average Concentration): 2.5 µg/mL | concentration at 10 min (brain, Brain, individual rats, read-out: Concentration (µg/mL) at 10 minutes, Rat 1-3): 4.1 µg/mL | concentration at 30 min (brain, Brain, individual rats, read-out: Concentration (µg/mL) at 30 minutes, Rat 1-3): 3.2 µg/mL | concentration at 90 min (brain, Brain, individual rats, read-out: Concentration (µg/mL) at 90 minutes, Rat 1-3): 3.1 µg/mL | concentration at 3 h (brain, Brain, individual rats, read-out: Concentration (µg/mL) at 3 h, Rat 1-3): 3.2 µg/mL | concentration at 6 h (brain, Brain, individual rats, read-out: Concentration (µg/mL) at 6 h, Rat 1-3): 2.2 µg/mL | concentration at 10 min (colon, Colon, 10 min, n = 3, read-out: Average Concentration): 10.3 µg/mL | concentration at 30 min (colon, Colon, 30 min, n = 3, read-out: Average Concentration): 7.6 µg/mL | concentration at 90 min (colon, Colon, 90 min, n = 3, read-out: Average Concentration): 6.3 µg/mL | concentration at 3 h (colon, Colon, 3 h, n = 3, read-out: Average Concentration): 5.7 µg/mL | concentration at 6 h (colon, Colon, 6 h, n = 3, read-out: Average Concentration): 6 µg/mL | concentration at 10 min (colon, Colon, individual rats, read-out: Concentration (µg/mL) at 10 minutes, Rat 1-3): 14.2 µg/mL | concentration at 90 min (colon, Colon, individual rats, read-out: Concentration (µg/mL) at 90 minutes, Rat 1-3): 4.2 µg/mL | concentration at 10 min (heart, Hearth, 10 min, n = 3, read-out: Average Concentration): 7.2 µg/mL | concentration at 30 min (heart, Hearth, 30 min, n = 3, read-out: Average Concentration): 3.6 µg/mL | concentration at 90 min (heart, Hearth, 90 min, n = 3, read-out: Average Concentration): 3.2 µg/mL | concentration at 3 h (heart, Hearth, 3 h, n = 3, read-out: Average Concentration): 2.9 µg/mL
